Measurements published in paper PMC10046901, “Molecular Analysis of the Superior Efficacy of a Dual Epidermal Growth Factor Receptor (EGFR)-DNA-Targeting Combi-Molecule in Comparison with Its Putative Prodrugs 6-Mono-Alkylamino- and 6,6-Dialkylaminoquinazoline in a Human Osteosarcoma Xenograft Model” (Cells, 2023).

Key:
MNNG/HOS = assay: cells; assay type: cell-based; settings: 120 h, read-out: IC50 growth inhibition
MG-63 = assay: cells; assay type: cell-based; settings: Homo sapiens, MG-63, 120 h, read-out: IC50 growth inhibition
KHOS/NP = assay: cells; assay type: cell-based; settings: Homo sapiens, 120 h, read-out: IC50 growth inhibition
U2-OS = assay: cells; assay type: cell-based; settings: Homo sapiens, U2OS, 120 h, read-out: IC50 growth inhibition
Saos-2 = assay: cells; assay type: cell-based, human; settings: Homo sapiens, SAOS-2, 120 h, read-out: IC50 growth inhibition
[1] = test system: several other osteosarcoma cell lines; parameters: method as in PMID 23091447; settings: concentrations of up to 20 μM; cited from earlier work

Row | Structure (SMILES) | IC50 (MNNG/HOS) | IC50 (MG-63) | IC50 (KHOS/NP) | IC50 (U2-OS) | IC50 (Saos-2) | effect on viability of osteosarcoma cell lines [1]
1 | O=C(O)CCCc1ccc(N(CCCl)CCCl)cc1 [Chlorambucil, chlorambucil, reference compound] | 12.1 ± 1.01 µM | 13.1 ± 1.28 µM | 9.25 ± 1.35 µM | 9.59 ± 0.55 µM | 7.53 ± 0.75 µM | –
2 | COc1cc2ncnc(Nc3ccc(F)c(Cl)c3)c2cc1OCCCN1CCOCC1 [Gefitinib, gefitinib] | – | – | – | – | – | did not reduce the viability
